# According to US11827628B2, “Compositions and methods for inhibition of the JAK pathway” (Rigel Pharmaceuticals, Inc., priority 2005, dated 2023):
# Structures can show the parent of a compound that is named as a salt. Where two headings read alike, the source gives them in different places.
# How the values were obtained:
# Primary human T-cells = assay: Primary Human T-Cell Proliferation Assay Stimulated with IL-2 (CellTiter-Glo); type: cell-based; conditions: read-out: IC50, Example 42
# Source text: The activity of the active compounds of the invention may further be characterized by assaying the effect of the 2,4-substituted pyrimidinediamine compounds described herein on the proliferative response of primary human T-cells. In this assay, primary human T-cells derived from peripheral blood and pre-activated through stimulation of the T-cell receptor and CD28, proliferate in culture in response to the cytokine Interleukin-2 (IL-2). This proliferative response is dependent on the activation of JAK1 and JAK3 tyrosine kinases, which phosphorylate and activate the transcription factor Stat-5. The primary human T-cells are incubated with the 2,4-substituted pyrimidinediamine compounds in the presence of IL-2 for 72 hours and at the assay endpoint intracellular ATP concentrations are measured to assess cell viability. A reduction in cell proliferation compared to control conditions is indicative of inhibition of the JAK kinase pathway. An exemplary assay of this type is described in greater detail in Example 42
# Primary human T-cells derived from peripheral blood and pre-activated through stimulation of the T-cell receptor and CD28, proliferate in vitro in response to the cytokine Interleukin-2 (IL-2). This proliferative response is dependent on the activation of JAK-1 and JAK-3 tyrosine kinases, which phosphorylate and activate the transcription factor Stat-5.
# Human primary T cells were prepared as follows. Whole blood was obtained from a healthy volunteer, mixed 1:1 with PBS, layered on to Ficoll Hypaque (Amersham Pharmacia Biotech, Piscataway, NJ, Catalog #17-1440-03) in 2:1 blood/PBS:ficoll ratio and centrifuged for 30 min at 4° C. at 1750 rpm. The lymphocytes at the serum: ficoll interface were recovered and washed twice with 5 volumes of PBS. The cells were resuspended in Yssel's medium (Gemini Bio-products, Woodland, CA, Catalog #400-103) containing 40 U/mL recombinant IL2 (R and D Systems, Minneapolis, MN, Catalog #202-IL (20 rig)) and seeded into a flask pre-coated with 1 μg/mL anti-CD3 (BD Pharmingen, San Diego, CA, Catalog #555336) and 5 μg/mL anti-CD28 (Immunotech, Beckman Coulter of Brea CA, Catalog #IM1376). The primary T-cells were stimulated for 3-4 days, then transferred to a fresh flask and maintained in RPMI with 10% FBS and 40 U/mL IL-2.
# Primary T-cells were washed twice with PBS to remove the IL-2 and resuspended in Yssel's medium at 2×10^6 cells/mL. 50 μL of cell suspension containing 80 U/mL IL-2 was added to each well of a flat bottom 96 well black plate. For the unstimulated control, IL-2 was omitted from the last column on the plate. Compounds were serially diluted in dimethyl sulfoxide (DMSO, 99.7% pure, cell culture tested, Sigma-Aldrich, St. Louis, MO, Catalog No. D2650) from 5 mM in 3-fold dilutions, and then diluted 1:250 in Yssel's medium. 50 μL of 2× compound was added per well in duplicate and the cells were allowed to proliferate for 72 hours at 37° C.
# Proliferation was measured using CellTiter-Glo® Luminescent Cell Viability Assay (Promega), which determines the number of viable cells in culture based on quantitation of the ATP present, as an indicator of metabolically active cells. The substrate was thawed and allowed to come to room temperature. After mixing the Cell Titer-Glo reagent and diluent together, 100 μL was added to each well. The plates were mixed on an orbital shaker for two minutes to induce lysis and incubated at room temperature for an additional ten minutes to allow the signal to equilibrate. Detection was performed using a Wallac Victor2 1420 multilabel counter purchased from Perkin Elmer, Shelton, CT The IC50 calculated based on the results of this assay are provided in TABLE XII.
# [1] = system: IL-4 stimulated expression of CD23 in human Ramos B cells (JAK-1 and JAK-3); assay: Assay for Ramos B-Cell Line Stimulated with IL-4 (CD23 upregulation, FACS); type: cell-based; conditions: read-out: IC50, Example 41
# Summary of the method: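 Human Ramos B cells (5×10^4 per point, RPMI 5% serum) pre-incubated 1 h at 37 °C with compound or DMSO, then stimulated with IL-4 at 50 units/mL final for 20-24 h. CD23 upregulation measured by anti-CD23-PE staining and flow cytometry; IC50 derived.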
# [2] = primary human T-cells stimulated with IL-2, proliferation
# [3] = Ramos B cells stimulated with IL-4, CD23 expression by FACS
# [4] = Homo sapiens, T-cell, primary human T-cell proliferation stimulated with IL-2
# [5] = Homo sapiens, Ramos, Ramos B-cell line stimulated with IL-4, CD23 expression by FACS
# [6] = Homo sapiens, T-cell, primary human T-cells stimulated with IL-2, proliferation
# [7] = Homo sapiens, Ramos, Ramos B cells stimulated with IL-4, CD23 expression by FACS
# [8] = primary human T-cell proliferation stimulated with IL-2
# [9] = Ramos B-cell line stimulated with IL-4, CD23 expression by FACS
compound,measurement,setting,value
"N4-(4-Acetylthiomethylcarbonylphenyl)-N2-(3-aminosulfonylphenyl)-5-fluoro-2,4-pyrimidinediamine [IX-42]",IC50,Primary human T-cells; [2],2170 nM
same,IC50,[1]; [3],292 nM
"Cc1ccc(Nc2ncc(F)c(Nc3ccc(OCC(=O)N(C)C)c(Cl)c3)n2)cc1S(N)(=O)=O [Compound I-133, N2-(3-Aminosulfonyl-4-methylphenyl)-N4-(3-chloro-4-dimethylaminocarbonylmethoxyphenyl)-5-fluoro-2,4-pyrimidinediamine]",IC50,Primary human T-cells; [4],1350 nM
same,IC50,[1]; [5],237 nM
"N#Cc1cc(Nc2nc(Nc3cccc(S(N)(=O)=O)c3)ncc2F)ccc1F [VI-98, N2-(3-Aminosulfonylphenyl)-N4-(3-cyano-4-fluorophenyl)-5-fluoro-2,4-pyrimidinediamine]",IC50,Primary human T-cells; [6],986 nM
same,IC50,[1]; [7],136 nM
"CNC(=O)OCCc1ccc(Nc2nc(Nc3ccc(C)c(S(N)(=O)=O)c3)ncc2F)cc1 [III-59, N2-(3-Aminosulfonyl-4-methylphenyl)-5-fluoro-N4-{4-[2-(methylaminocarbonyloxy)ethyl]phenyl}-2,4-pyrimidinediamine]",IC50,Primary human T-cells; [4],458 nM
same,IC50,[1]; [5],150 nM
"Cc1nccn1Cc1ccc(Nc2nc(Nc3cccc(S(N)(=O)=O)c3)ncc2F)cc1 [III-94, N2-(3-Aminosulfonylphenyl)-5-fluoro-N4-[4-(2-methyl-1-imidazolylmethyl)phenyl]-2,4-pyrimidinediamine]",IC50,Primary human T-cells; [2],716 nM
same,IC50,[1]; [3],162 nM
"COc1c(C)cc(Nc2ncc(F)c(N[C@H]3[C@@H](C(N)=O)[C@@H]4C=C[C@H]3C4)n2)cc1S(N)(=O)=O [VII-83, (1R,2R,3S,4S)N2-(3-Aminosulfonyl-4-methoxy-5-methylphenyl)-N4-(3-aminocarbonylbicyclo[2.2.1]hept-5-ene-2-yl)-5-fluoro-2,4-pyrimidinediamine]",IC50,Primary human T-cells; [6],937 nM
same,IC50,[1]; [7],77.5 nM
"CN1CCN(S(=O)(=O)c2ccc(Nc3ncc(F)c(Nc4ccc(OCC#N)cc4)n3)cc2)CC1 [Compound I-18, N4-(4-Cyanomethoxy)phenyl-5-fluoro-N2-[4-(4-methylpiperazin-1-yl)sulfonyl]phenyl-2,4-pyrimidinediamine]",IC50,Primary human T-cells; [8],1490 nM
same,IC50,[1]; [9],283 nM
"COC(=O)c1ccc(Nc2nc(Nc3ccc(S(N)(=O)=O)cc3)ncc2F)s1 [IX-49, N2-(4-Aminosulfonylphenyl)-5-fluoro-N4-(5-methoxycarbonyl-thiophene-2-yl)-2,4-pyrimidinediamine]",IC50,Primary human T-cells; [6],61900 nM
same,IC50,[1]; [7],96.5 nM
"Cc1cnc(Nc2ccc(Cl)c(S(N)(=O)=O)c2)nc1Nc1ccc(OCC(=O)N(C)C)c(F)c1 [Compound I-142, N2-(3-Aminosulfonyl-4-chlorophenyl)-N4-(4-dimethylaminocarbonylmethoxy-3-fluorophenyl)-5-methyl-2,4-pyrimidinediamine]",IC50,Primary human T-cells; [4],854 nM
same,IC50,[1]; [5],155 nM
"C#CCOC(=O)NCc1ccc(Nc2nc(Nc3ccc(C)c(S(N)(=O)=O)c3)ncc2F)cc1 [VI-73, N2-(3-Aminosulfonyl-4-methylphenyl)-5-fluoro-N4-{4-[(prop-2-ynyloxy)carbonylaminomethyl]phenyl}-2,4-pyrimidinediamine]",IC50,Primary human T-cells; [6],2010 nM
same,IC50,[1]; [7],251 nM
"NS(=O)(=O)c1cccc(Nc2ncc(F)c(Nc3cnc4ccccc4c3)n2)c1 [VII-66, N2-(3-Aminosulfonylphenyl)-5-fluoro-N4-(quinolin-3-yl)-2,4-pyrimidinediamine]",IC50,Primary human T-cells; [6],2870 nM
same,IC50,[1]; [7],369 nM
"N4-(4-Acetylthiomethylcarbonylphenyl)-N2-(3-aminosulfonyl-4-methylphenyl)-5-fluoro-2,4-pyrimidinediamine [IX-43]",IC50,Primary human T-cells; [2],2800 nM
same,IC50,[1]; [3],523 nM
"COc1ccc(Nc2nc(Nc3cccc(S(N)(=O)=O)c3)ncc2F)nc1N [VII-7, N2-(3-Aminosulfonylphenyl)-N4-(2-amino-3-methoxypyrid-6-yl)-5-fluoro-2,4-pyrimidinediamine]",IC50,Primary human T-cells; [6],3920 nM
same,IC50,[1]; [7],502 nM
"N#CCC(=O)Nc1ccc(Nc2nc(Nc3cccc(S(N)(=O)=O)c3)ncc2F)cc1 [Compound I-78, N2-(3-Aminosulfonylphenyl)-N4-[4-(N-cyanoacetyl)aminophneyl]-5-fluoro-2,4-pyrimidinediamine]",IC50,Primary human T-cells; [8],1210 nM
same,IC50,[1]; [9],635 nM
"CNS(=O)(=O)c1cccc(Nc2nc(Nc3ccc(C)c(S(N)(=O)=O)c3)ncc2F)c1 [IV-12, N2-(3-Aminosulfonyl-4-methylphenyl)-5-fluoro-N4-[3-(N-methylaminosulfonyl)phenyl]-2,4-pyrimidinediamine]",IC50,Primary human T-cells; [6],1220 nM
same,IC50,[1]; [7],257 nM
"CN1C(=O)COc2ccc(Nc3nc(Nc4cccc(S(N)(=O)=O)c4)ncc3F)cc21 [VII-41, N2-(3-Aminosulfonylphenyl)-5-fluoro-N4-(4-methyl-3-oxo-benz[1,4]oxazin-6-yl)-2,4-pyrimidinediamine]",IC50,Primary human T-cells; [6],264 nM
same,IC50,[1]; [7],46.9 nM
"CCC(=O)NS(=O)(=O)c1cc(Nc2ncc(F)c(Nc3ccc(CCC#N)c(Cl)c3)n2)ccc1C [III-29, N4-(3-Chloro-4-cyanoethylene-phenyl)-5-fluoro-N2-(4-methyl-3-propionylaminosulfonylphenyl)-2,4-pyrimidinediamine Sodium salt]",IC50,Primary human T-cells; [8],12400 nM
same,IC50,[1]; [9],3630 nM
"CC1(C)Oc2cc(Nc3nc(Nc4ccc(Cl)c(S(N)(=O)=O)c4)ncc3F)cnc2N(CC#N)C1=O [Compound V-15, N2-(3-Aminosulfonyl-4-chlorophenyl)-N4-[2,2-dimethyl-3-oxo-4-cyanomethyl-5-pyrid[1,4]oxazin-7-yl]-5-fluoro-2,4-pyrimidinediamine]",IC50,Primary human T-cells; [2],9310 nM
same,IC50,[1]; [3],173 nM
"CNS(=O)(=O)c1cc(Nc2ncc(F)c(Nc3ccc(Cn4cncn4)cc3)n2)ccc1C [III-102, 5-Fluoro-N2-[3-(N-methylaminosulfony)-4-methylphenyl]-N4-{4-[1-(1,2,4-thazolyl)methyl]phenyl}-2,4-pyrimidinediamine]",IC50,Primary human T-cells; [2],486 nM
same,IC50,[1]; [3],302 nM
"C=CC(=O)NCc1ccc(Nc2nc(Nc3cccc(S(N)(=O)=O)c3)ncc2F)cc1 [III-45, N4-(4-Acrylamidomethylphenyl)-N2-(3-aminosulfonylphenyl)-5-fluoro-2,4-pyrimidinediamine]",IC50,Primary human T-cells; [4],384 nM
same,IC50,[1]; [5],293 nM
"Cc1ccc(Nc2ncc(F)c(Nc3ccc(OCC(F)(F)F)cc3)n2)cc1S(N)(=O)=O [VI-46, N2-(3-Aminosulfonyl-4-methylphenyl)-5-fluoro-N4-(4-trifluoromethylmethyleneoxyphenyl)-2,4-pyrimidinediamine]",IC50,Primary human T-cells; [2],1260 nM
same,IC50,[1]; [3],144 nM
"Cc1cnc(Nc2ccc(S(N)(=O)=O)cc2)nc1Nc1ccc2c(c1)N(C)C(=O)CS2 [VII-34, N2-(4-Aminosulphonylphenyl)-5-methyl-N4-(4-methyl-3-oxo-benzo[1,4]thiazin-6-yl)-2,4-pyrimidinediamine]",IC50,Primary human T-cells; [6],22.5 nM
same,IC50,[1]; [7],45 nM
"CNS(=O)(=O)c1cc(Nc2ncc(F)c(Nc3ccc(OCc4ccncc4)cc3)n2)ccc1C [Compound I-195, 5-Fluoro-N2-[3-(N-methylaminosulfony)-4-methylphenyl]-5-fluoro-N4-[4-(4-pyridinyl)methyleneoxyphenyl]-2,4-pyrimidinediamine]",IC50,Primary human T-cells; [8],127 nM
same,IC50,[1]; [9],82.6 nM
